# Measured values taken from patent US20050239656A1, “Pyridine compounds or salts thereof and herbicides containing the same” (priority 2002, published 2005).
# Tests used:
# redroot pigweed [1] = assay: Test Example 1: foliage treatment, upland pot test; assay type: in vivo, Amaranthus retroflexus L.; conditions: active ingredient 500 g/ha, observed 18th to 23rd day, 0 = non-treated, 100 = complete kill
# rice [2] = assay: Test Example 1: foliage treatment, upland pot test; assay type: in vivo, Oryza sativa L.; conditions: crop, active ingredient 500 g/ha, observed 18th to 23rd day, 0 = non-treated, 100 = complete kill
# Procedure, shortened: (§1)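 Upland pot test, foliar. Soybean 0.1–0.4 / wheat 1.3–2.4 / rice 1.2–2.6 / barnyardgrass 1.3–2.8 leaf stage at spraying; 500 L/ha carrier, 0.1% (v/v) spreader. Visual % control, 0 untreated to 100 dead, days 18–23.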
# soybean [3] = assay: Test Example 2: soil surface treatment, upland pot test; assay type: in vivo, Glycine max Merr.; conditions: active ingredient 1000 g/ha, observed 20th to 28th day
# Procedure, shortened: (§2)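 Sowing, then next-day soil-surface spray of formulated test compound (fixed a.i. amount, 1,500 L/ha spray volume); visual evaluation of growth inhibition, 0–100%, three to four weeks (days 20–28) after application.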
# velvetleaf [4] = assay: as above; assay type: in vivo, Abutilon theophrasti MEDIC.; conditions: active ingredient 1000 g/ha, observed 20th to 28th day
# Procedure, shortened: as §2
# redroot pigweed [5] = assay: as above; assay type: in vivo, Amaranthus retroflexus L.; conditions: active ingredient 1000 g/ha, observed 20th to 28th day
# Procedure, shortened: as §2
# crabgrass [6] = assay: Test Example 1: foliage treatment, upland pot test; assay type: in vivo, Digitaria sanguinalis L.; conditions: active ingredient 500 g/ha, observed 18th to 23rd day, 0 = non-treated, 100 = complete kill
# wheat = assay: Test Example 2: soil surface treatment, upland pot test; assay type: in vivo, Triticum spp.; conditions: active ingredient 1000 g/ha, observed 20th to 28th day
# Procedure, shortened: as §2
# rice (var. Nihonbare) = assay: Test Example 3: paddy pot test, transplanted rice; assay type: in vivo, Oryza sativa L.; conditions: active ingredient 500 g/ha, applied 4th day after transplantation, visually observed 21st day after application, 0 = non-treated, 100 = complete kill
# Procedure, shortened: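 Rice (var. Nihonbare) at 2 leaf stage transplanted 3 cm deep into puddled paddy soil under 3–4 cm flooding; on day 4 after transplanting, diluted wettable powder or emulsifiable concentrate applied by pipette under submerged conditions at a set active-ingredient dose. Growth scored visually 21 days after application, 0 (untreated) to 100 (complete kill) %.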
# soybean [7] = assay: Test Example 1: foliage treatment, upland pot test; assay type: in vivo, Glycine max Merr.; conditions: crop, active ingredient 500 g/ha, observed 18th to 23rd day, 0 = non-treated, 100 = complete kill
# Procedure, shortened: as §1
# green foxtail [8] = assay: Test Example 2: soil surface treatment, upland pot test; assay type: in vivo, Setaria viridis L.; conditions: active ingredient 1000 g/ha, observed 20th to 28th day
# Procedure, shortened: as §2
# japanese ribbon wapato = assay: Test Example 3: paddy pot test, application under submerged conditions; assay type: in vivo, Sagittaria pygniaea; conditions: active ingredient 500 g/ha; submerged application at primary leaf stage; visually observed 14 days after application; 0 = non-treated, 100 = complete kill
# Procedure, shortened: (§3)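 Barnyardgrass and japanese bulrush sown in flooded paddy soil in greenhouse pots, japanese ribbon wapato tubers planted 1–2 days later; water depth kept at 3–4 cm. Diluted wettable powder or emulsifiable concentrate applied into water at 0.5-leaf or primary-leaf stage at set active-ingredient doses. Growth control scored visually at 14 days, 0 (untreated) to 100% (complete kill).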
# japanese bulrush = assay: as above; assay type: in vivo, Scirpus juncoides; conditions: active ingredient 500 g/ha; submerged application at 0.5 leaf stage; visually observed 14 days after application; 0 = non-treated, 100 = complete kill
# Procedure, shortened: as §3
# corn [9] = assay: Test Example 2: soil surface treatment, upland pot test; assay type: in vivo, Zea mays L.; conditions: active ingredient 1000 g/ha, observed 20th to 28th day
# Procedure, shortened: as §2
# velvetleaf [10] = assay: Test Example 1: foliage treatment, upland pot test; assay type: in vivo, Abutilon theophrasti MEDIC.; conditions: active ingredient 500 g/ha, observed 18th to 23rd day, 0 = non-treated, 100 = complete kill
# rice [11] = assay: Test Example 2: soil surface treatment, upland pot test; assay type: in vivo, Oryza sativa L.; conditions: active ingredient 1000 g/ha, observed 20th to 28th day
# Procedure, shortened: as §2
# barnyardgrass [12] = assay: as above; assay type: in vivo, Echinochloa crus-galli L.; conditions: active ingredient 1000 g/ha, observed 20th to 28th day, 0 = non-treated, 100 = complete kill
# Procedure, shortened: as §2
# prickly sida [13] = assay: as above; assay type: in vivo, Sida spinosa L.; conditions: active ingredient 1000 g/ha, observed 20th to 28th day
# Procedure, shortened: as §2
# green foxtail [14] = assay: Test Example 1: foliage treatment, upland pot test; assay type: in vivo, Setaria viridis L.; conditions: active ingredient 500 g/ha, observed 18th to 23rd day, 0 = non-treated, 100 = complete kill
# crabgrass [15] = assay: Test Example 2: soil surface treatment, upland pot test; assay type: in vivo, Digitaria sanguinalis L.; conditions: active ingredient 1000 g/ha, observed 20th to 28th day
# Procedure, shortened: as §2
# barnyardgrass [16] = assay: Test Example 1: foliage treatment, upland pot test; assay type: in vivo, Echinochloa crus-galli L.; conditions: active ingredient 500 g/ha, observed 18th to 23rd day, 0 = non-treated, 100 = complete kill
# Procedure, shortened: as §1
# tall morningglory = assay: Test Example 1: foliage treatment, upland pot test; assay type: in vivo, Ipomoea purpurea L.; conditions: active ingredient 500 g/ha, observed 18th to 23rd day, 0 = non-treated, 100 = complete kill
# From the text: Upland field soil was put into a 1/170,000 ha pot, and seed of various plants were sown. Then, when the plants reached predetermined leaf stages ((1) barnyardgrass: 1.3 to 2.8 leaf stages, (2) crabgrass: 1.0 to 2.8 leaf stages, (3) green foxtail: 1.3 to 2.6 leaf stages, (4) redroot pigweed: 0.1 to 1.2 leaf stages, (5) prickly sida: 0.1 to 1.2 leaf stages, (6) velvetleaf: 0.1 to 1.2 leaf stages, (7) tall morningglory: 0.1 to 1.5 leaf stages, (8) rice: 1.2 to 2.6 leaf stages, (9) wheat: 1.3 to 2.4 leaf stages, (10) corn, 2.1 to 3.2 leaf stages, (11) soybean: 0.1 to 0.4 leaf stage), a wettable powder or emulsifiable concentrate having the compound of the present invention formulated in accordance with a usual formulation method, was weighed so that the active ingredient would be a predetermined amount, and diluted with water in an amount of 500 L/ha. To the diluted solution, 0.1% (v/v) of agricultural spreader was added. The herbicide thus adjusted was applied by a small size sprayer for foliage treatment. On the 18th to 23rd days after the application of the herbicide, the growth of the respective plants was visually observed, and the herbicidal effects were evaluated by the growth controlling degrees (%) ranging from 0 (equivalent to the non-treated plot) to 100 (complete kill), whereby the results shown in Table 3, were obtained.
# prickly sida [17] = assay: Test Example 1: foliage treatment, upland pot test; assay type: in vivo, Sida spinosa L.; conditions: active ingredient 500 g/ha, observed 18th to 23rd day, 0 = non-treated, 100 = complete kill
# corn [18] = assay: Test Example 1: foliage treatment, upland pot test; assay type: in vivo, Zea mays L.; conditions: crop, active ingredient 500 g/ha, observed 18th to 23rd day, 0 = non-treated, 100 = complete kill
# Procedure, shortened: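 Corn seeds were sown in upland field soil held in a 1/170,000 ha pot and grown to the 2.1 to 3.2 leaf stage. A wettable powder or emulsifiable concentrate of the test compound was diluted with water at 500 L/ha, given 0.1% (v/v) agricultural spreader, and sprayed onto the foliage with a small sprayer. Growth controlling degree (%) was scored visually 18th to 23rd days later, from 0 (non-treated) to 100 (complete kill).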
# barnyardgrass [19] = assay: Test Example 3: paddy pot test, application under submerged conditions; assay type: in vivo, Echinochloa crus-galli L.; conditions: active ingredient 500 g/ha; submerged application at 0.5 leaf stage; visually observed 14 days after application; 0 = non-treated, 100 = complete kill
# Procedure, shortened: as §3
SMILES,Growth controlling degree (%) Redroot pigweed (redroot pigweed [1]),Growth controlling degree (%) Rice (rice [2]),Growth controlling degree (%) Soyabean (soybean [3]),Growth controlling degree (%) Velvetleaf (velvetleaf [4]),Growth controlling degree (%) Redroot pigweed (redroot pigweed [5]),Growth controlling degree (%) Crabgrass (crabgrass [6]),Growth controlling degree (%) wheat (wheat),Growth controlling degree (%) Rice (rice (var. Nihonbare)),Growth controlling degree (%) Soybean (soybean [7]),Growth controlling degree (%) Green foxtail (green foxtail [8]),Growth controlling degree (%) Japanese ribbon wapato (japanese ribbon wapato),Growth controlling degree (%) Japanese bulrush (japanese bulrush),Growth controlling degree (%) Corn (corn [9]),Growth controlling degree (%) Velvetleaf (velvetleaf [10]),Growth controlling degree (%) Rice (rice [11]),Growth controlling degree (%) Barnyardgrass (barnyardgrass [12]),Growth controlling degree (%) Prickly sida (prickly sida [13]),Growth controlling degree (%) Green foxtail (green foxtail [14]),Growth controlling degree (%) Crabgrass (crabgrass [15]),Growth controlling degree (%) Barnyardgrass (barnyardgrass [16]),further results
CC(C)C(c1cnccc1C(F)(F)F)N(C)C(=O)Cc1c(F)cccc1F (stereo not drawn) [I-13],80%,20%,20%,100%,90%,80%,98%,30%,90%,100%,90%,95%,40%,80%,30%,100%,90%,80%,100%,80%,Growth controlling degree (%) Tall morningglory (tall morningglory): 95%; Growth controlling degree (%) Prickly sida (prickly sida [17]): 70%; Growth controlling degree (%) Corn (corn [18]): 70%; Growth controlling degree (%) Barnyardgrass (barnyardgrass [19]): 100%
CC(C(=O)N(C)C(c1cnccc1C(F)(F)F)C(C)C)c1ccccc1 (stereo not drawn) [I-12],50%,0%,20%,80%,90%,95%,40%,30%,30%,100%,70%,100%,0%,80%,10%,100%,90%,60%,100%,50%,Growth controlling degree (%) Tall morningglory (tall morningglory): 70%; Growth controlling degree (%) Prickly sida (prickly sida [17]): 60%; Growth controlling degree (%) Corn (corn [18]): 10%; Growth controlling degree (%) Barnyardgrass (barnyardgrass [19]): 100%
